Test results as given in patent publication US11975005B2, “Treatment of respiratory diseases” (TIANLI BIOTECH PTY LTD, priority 2015, dated 2024).

What was measured:
RSV = assay: 5 day model of RSV infection, treatments from day 1; type: in vivo, mice
[1] = test system: human parenchymal fibroblasts; assay: TGFβ-induced fibrogenic gene expression in human parenchymal lung fibroblasts; type: cell-based
Description: Experiments described in the current Example and Example 14 involved culture of human parenchymal fibroblasts, measurement of their proliferation and gene expression response, the methods for which are detailed in Schuliga et al 2009 (Am J Respir Cell Mol Biol. 2009; 41(6):731-41).
The investigation of fibrogenesis may be undertaken in in vivo models typically using rodents. However, differences in behavior of cell types and species differences in protein structures and signaling systems create some limitations in the predictive value of such models. Additional valuable evidence of impacts on fibrogenesis can be obtained from the use of human fibroblasts isolated from the parenchyma and maintained in cell culture (Schuliga et al. (2009) Am J Respir Cell Mol Biol 41(6):731-741; Westergren-Thorsson et al. (2004) Int J Biochem Cell Biol 36(8): 1573-1584).
The data shown is for parenchymal lung fibroblasts from both patients with the pulmonary fibrotic disease, idiopathic pulmonary fibrosis (IPF) and those derived samples of non-IPF donors. […] Colla is a subunit of the fibrillar type collagen that is deposited in excess in the extracellular matrix in fibrotic lesions.
FIG. 15B was performed in the same manner as for FIG. 15A except that in this experiment the fibroblasts are cultured as a suspended spheroid, rather than in 2D monolayer culture.

Nc1nccc(-c2c(-c3ccc(F)cc3)ncn2C2CCCCC2)n1 [PF670462]
Levels of IFN β (RSV): enhanced
Levels of IFN λ 2 (RSV): enhanced
Levels of IFN λ 3 (RSV): enhanced
TNFα expression in BAL cells when added to Dex treatment (RSV): further effect
accumulation of inflammatory cells in the BAL fluid (RSV; administered from day 1): reduced
TNFα expression levels in BAL cells (RSV; agent alone): directly suppresses
TGFβ induction of Col1a (collagen 1A) expression ([1]; 2D monolayer fibroblasts from IPF and non-IPF donors, TGFβ 24 hour, 3 μM): significantly suppressed
TGFβ-induced collagen 1A expression in IPF fibroblasts cultured as suspended spheroid ([1]; FIG. 15B, 3 μM): inhibits
TGFβ-induced collagen 1A increase in non-IPF derived cultures as suspended spheroid ([1]; FIG. 15B, 3 μM): not signficantly affected
fibrogenic actions of TGFβ (FIGS. 15A-C, collagen 1A and CTGF) ([1]; IPF or non-IPF donors, 2D or 3D): inhibited
